What all share (test): NCI-60 cell line screen, 48 h
Assay [1] has as its system MDA-MB-435.
Assay [2] concerns MCF7.
Assay [3] deals with OVCAR-4.
In assay [4] the test system is A498.
Assay [5] has as its system HOP-62.
The subject of assay [6] is BT-549.
Assay [7] relates to HL-60.
The subject of assay [8] is OVCAR-3.
For assay [9], the system named is DU-145.
For assay [10], the system named is HCT-15.
The test system of assay [11] is Hs-578T.
Assay [12] deals with SK-MEL-2.
Assay [13] has as its system OVCAR-8.
Assay [14] deals with IGROV-1.
In assay [15] the test system is K562.
The test system of assay [16] is KM12.
Assay [17] deals with UO-31.
Assay [18] concerns ACHN.
In assay [19] the test system is MDA-MB-231.
The test system of assay [20] is NCI-H23.

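Dose response: 5 concentrations. Exposure: 48 h. Format: 96-well plates. Endpoint: linear interpolation; highest concentration if not reached. GI50 is the concentration that inhibits growth by half.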 The source made the active and inactive calls. Rule as the data show it: active = GI50 up to about 1.1 µM and inactive = higher. Some results are limits rather than exact numbers.

As to `O=c1n(CCCN2CCN(c3cccc(Cl)c3)CC2)nc2n1-c1ccc3ccccc3c1SC2`, the GI50 in assay [1], in assay [2], in [3], in [4], in assay [5] and in assay [6] was > 100 µM (inactive) in each case. Also, the GI50 in assay [7] was > 100 µM (inactive); in assay [8] it was > 100 µM (inactive); in assay [9], > 100 µM (inactive); in assay [10], above 100 µM; in assay [11], > 100 µM (inactive); in [12], > 100 µM (inactive). In addition, the GI50 in assay [13], in assay [14], in assay [15] and in [16] was > 100 µM (inactive) each time.
As to `O=C1ON=C2C3CC4CC12CC1(C3)C(=O)ON=C41`, the GI50 in assay [1], in [17], in assay [2], in assay [3], in [4] and in assay [5] was > 100 µM (inactive) throughout. Also, the GI50 in assay [6], in [18], in assay [7], in [8], in [9] and in assay [19] was > 100 µM (inactive) in each case. The GI50 in [12], in assay [13], in [14], in [20], in assay [15] and in [16] was > 100 µM (inactive) throughout.
In the case of `CN1CCN(c2cc3c(cc2F)c(=O)c(C(=O)O)cn3C2CC2)CC1CC#N` (centres undefined), the GI50 in assay [1], in [17], in assay [2], in assay [3], in [4] and in assay [5] was > 100 µM (inactive) each time. Besides, the GI50 in assay [6] was > 100 µM (inactive); in assay [18], > 100 µM (inactive); in [7] it was > 100 µM (inactive); in assay [8] it was > 100 µM (inactive); in assay [9] it was > 100 µM (inactive); in [10] it was above 100 µM. The GI50 in assay [19], in assay [13], in [14], in assay [20], in assay [15] and in assay [16] was > 100 µM (inactive) in each case.
`C#CCOCC12C=CC(O1)C1C(=O)N(C)C(=O)C12` (centres undefined): the GI50 in assay [1], in [17], in [2], in [3], in [4] and in assay [5] was > 100 µM (inactive) in each case. Besides, the GI50 in assay [6] is > 100 µM (inactive); in assay [18], > 100 µM (inactive); in assay [7], > 100 µM (inactive); in assay [8], > 100 µM (inactive); in assay [9] it was > 100 µM (inactive); in assay [10], above 100 µM. Moreover, the GI50 in assay [19], in assay [13], in assay [14], in [20] and in [16] was > 100 µM (inactive) throughout.
`CS(=O)(=O)CCC(N)P(=O)(O)O` (centres undefined): the GI50 in assay [1], in assay [17], in [2], in assay [3], in [5] and in assay [6] was > 100 µM (inactive) in each case. For the same molecule, the GI50 in assay [18] was > 100 µM (inactive); in assay [7] it was > 100 µM (inactive); in assay [8], > 100 µM (inactive); in assay [9] it was > 100 µM (inactive); in assay [10] it was above 100 µM; in [11], > 100 µM (inactive). For the same molecule, the GI50 in [12], in [13], in assay [14], in [20], in assay [15] and in assay [16] was > 100 µM (inactive) throughout.
On to `CC(C)(C)OC(=O)NCCC(N)=S`, for which the GI50 in [1], in assay [17], in [2], in assay [4], in assay [5] and in assay [6] was > 100 µM (inactive) throughout. Also, the GI50 in assay [18] is > 100 µM (inactive); in assay [7], > 100 µM (inactive); in assay [8], > 100 µM (inactive); in assay [9], > 100 µM (inactive); in assay [10], above 100 µM; in assay [11], > 100 µM (inactive). Also, the GI50 in [13], in assay [14], in assay [20], in assay [15] and in [16] was > 100 µM (inactive) in each case.
Regarding `CCOC(=O)C(=[N+]=[N-])C(=O)Nc1nn2nnnc2c2ccccc12`, the GI50 in [1], in assay [17], in assay [2], in assay [3], in assay [4] and in [5] was > 100 µM (inactive) throughout. In addition, the GI50 in [6], in [18], in assay [7], in assay [8], in [9] and in [19] was > 100 µM (inactive) each time. Also, the GI50 in [12], in [13], in [14], in assay [20], in assay [15] and in [16] was > 100 µM (inactive) throughout.
Take `CCOC(=O)/C(=C\c1cn(C(C)=O)c2ccccc12)P(C)(=O)OCC` (centres undefined): the GI50 in [1] is 31.8 µM (inactive); in [17] it was 32.3 µM (inactive); in [2] it was 32.8 µM (inactive); in assay [4], 28.8 µM (inactive); in [5] it was 33.2 µM (inactive); in assay [6] it was 22.3 µM (inactive). The GI50 in [18] was 26 µM (inactive); in [7] it was > 100 µM (inactive); in assay [8], 28.5 µM (inactive); in assay [9], 25.9 µM (inactive); in assay [10], 28.8 µM; in [19], 27.4 µM (inactive). Further, the GI50 in assay [12] was 39.8 µM (inactive); in assay [13], 33.4 µM (inactive); in [14], 16.8 µM (inactive); in [15], > 100 µM (inactive); in assay [16] it was 33.1 µM (inactive).

Source of the values: ChEMBL document CHEMBL1201862, “PubChem BioAssay data set” (2004).
